Assay results as given in patent US20170363618A1, “AGE-MODIFIED CELLS AND METHODS FOR MAKING AGE-MODIFIED CELLS” (MEMORIAL SLOAN-KETTERING CANCER CENTER, priority 2015, published 2017).
“Also recorded” adds a separate entry of the source. Read-outs that look alike come from different tables or passages of the source.

How the values were obtained:
[1] = test system: young (348) and old (204) fibroblasts; test: 10-day culture with compounds, cell survival measured by cell number counts; type: cell-based
Description: Cell numbers are calculated as a mean of 8 wells.
Control cultures of young cells were still healthy after 10 days, and the compounds all had effects on viability (FIG. 15).

[2] = test system: young (348) and old (204) fibroblasts; test: Immunofluorescence detection of aging marker expression in fibroblasts after three-day compound treatment; type: cell-based, human; details: for shape of youthful marker expression over the three doses (C1-C3): in some cases, highest dose gave lower expression than middle or lower dose
Description: Cell samples were all supplied by Coriell Cell Repositories. The cell line from a young individual (<20 years) was GM03348 (“348”). The cell line from an old individual (>65 years) was GM04204 (“204”).
Cells were cultured in human fibroblast medium made from 95% Gibco's Minimum Essential Medium, 4.5% fetal bovine serum, and 0.5% Penicillin/Streptomycin. Cells were plated on 15 cm plates and passaged every 2-3 days as necessary, and fed every other day. For experimentation, cells were plated in 96 well plates or 6 well plates. Before fixation, cells were treated with a preextraction buffer containing 20 mM Hepes pH 7.9, 0.5% Triton X-100, 50 mM NaCl, and 300 mM sucrose for 7 minutes at 4° C. to reduce the high levels of background seen in initial stainings. Cells were then fixed with 4% paraformaldehyde for 15 minutes at room temperature.
After fixing, cells were incubated in Permeablization Buffer containing 0.3% Triton X-100 and 1% BSA in PBS for 35 minutes at room temperature. Cells were then incubated with primary antibodies to markers (1:1000 in PBS) at 4° C. overnight. Following incubation, cells were washed 3× with PBS, then incubated with secondary antibodies (1:500 in PBS) for 30 minutes at room temperature, protected from light. Following this incubation, cells were washed 1× with PBS, then incubated with DAPI 1:1000 in PBS for 7 minutes at room temperature, protected from light, then washed 2× with PBS. Stainings were imaged using either using the Hamamatsu Olympus IX81 microscope, or the PerkinElmer Operetta High Content Imaging System. The expression level of each marker was determined relative to the untreated control on the same treatment plate (FIGS. 11, 13, 15 and 16), or to the average of the untreated controls across all treatment plates for the same marker (FIGS. 12 and 14).
Imaging of immunofluorescence was done using the PerkinElmer Operetta High Content Imaging System. Each well had several (>15) random spots in each plate imaged, and staining intensity quantification was done using the Operetta Harmony software. Analysis is based on mean intensity levels of each staining within a single well compared to mean intensity levels in other wells.
(§1) Cells were then treated with each of the six compounds for three days. Each compound had both a young and old untreated control, as well as the three pre-determined concentrations for both young and old cells. In addition, a six-well plate was set up for Decitabine, Zebularine, Chaetocin and SW155246, with an additional 3 cm plate for use as untreated controls for quantification of global levels of DNA methylation. After treatment, cells were stained with immunofluorescence for HP1α, H1, γH2Ax, Lamin B1, H3K9me3 and […].

[3] = test system: global DNA levels of 5-mC methylation; test: Global 5-mC DNA methylation quantification (colorimetric Methylflash kit) in treated fibroblasts; type: cell-based, human; details: 3 days of treatment, young and old fibroblasts, three concentrations
Description: Genomic DNA was extracted from treated cell samples using the Quick-gDNA MicroPrep kit (Zymo). Global levels of DNA methylation were measured using the colorimetric Methylflash Methylated DNA quantification kit (Epigentek) according to manufacturer instructions, and read using the PerkinElmer ENSPIRE plate reader. gDNA sample size was 50 ng. Analysis was performed according to manufacturer instructions.
as §1

motor neurons (MNs) = details: ALS motor neuron screen, 72 hr with compound; cited from earlier work
[4] = 3-day treatment, primary fibroblasts from young and old individuals, immunofluorescence vs untreated control
[5] = 3-day treatment, young and old fibroblasts

Compound: CN1C(=O)[C@@]23C[C@]4([C@]56C[C@@]78SS[C@@](CO)(C(=O)N7[C@H]5Nc5ccccc56)N(C)C8=O)c5ccccc5N[C@@H]4N2C(=O)[C@]1(CO)SS3 [Chaetocin, (3S,3'S,5aR,5aR,10bR,10′bR,11aS,11′aS)-2,2′,3,3′,5a,5′a,6,6′-octahydro-3,3′-bis(hydroxymethyl)-2,2′-dimethyl-[10b,10′b(11H,11′H)-bi3,11a-epidithio-11aH-pyrazino[1′,2′:1,5]pyrrolo[2,3-b]indole]-1,1′,4,4′-tetrone]
- toxicity / effect on viability after prolonged culture (cell number) ([1]; 10-day culture, young cells (control cultures still healthy)): highest toxicity

Compound: Nc1ncn([C@H]2C[C@H](O)[C@@H](CO)O2)c(=O)n1 [Decitabine, 5-aza-2-deoxycytidine]
- toxicity / effect on viability after prolonged culture (cell number) [1]: Much less toxicity

Compound: CO[C@H]1C[C@@H]2CC[C@@H](C)[C@@](O)(O2)C(=O)C(=O)N2CCCC[C@H]2C(=O)O[C@H]([C@H](C)C[C@@H]2CC[C@@H](O)[C@H](OC)C2)CC(=O)[C@H](C)/C=C(\C)[C@@H](O)[C@@H](OC)C(=O)[C@H](C)C[C@H](C)/C=C/C=C/C=C/1C [Rapamycin]
- toxicity / effect on viability after prolonged culture (cell number) [1]: Toxicity was also seen

Compound: Oc1ccc(C=Cc2cc(O)cc(O)c2)cc1 [Resveratrol]
- toxicity / effect on viability after prolonged culture (cell number) [1]: Toxicity was also seen
- effect on markers in young cells compared to old cells ([2]; 3-day culture): greater in young cells compared to old cells; also recorded: more of an effect on young cells than on old cells
- levels of all markers (H1, HP1α, H3K9me3, H3K27me3, LaminB1, yH2Ax) ([2]; 3-day culture, young (348) and old (204) fibroblasts, normalized to untreated, FIG. 11): increased
- levels of the five markers of a younger state (H1, HP1α, H3K9me3, H3K27me3, LaminB1) ([2]; 3-day culture, young and old fibroblasts): all increased
- levels of HP1α (heterochromatin marker, marker of young cellular age) [2, 4]: increasing
- levels of histone protein H1 (marker of young cellular age) [2, 4]: increasing

Compound: O=[N+]([O-])c1cc(S(=O)(=O)Nc2ccc(O)c3ccccc23)ccc1Cl [SW155246, 4-Chloro-N-(4-hydroxy-1-naphthalenyl)-3-nitro-benzenesulfonamide]
- global levels of 5-mC DNA methylation [3]: increased with both the highest and lowest concentrations, but decreased slightly with the middle concentration; also recorded: did not consistently go down
- toxicity / effect on viability after prolonged culture (cell number) [1]: Much less toxicity
- shape of youthful marker expression over the three doses (C1-C3) ([2]; 3-day treatment): inverted U shaped curve
- levels of HP1α (heterochromatin marker, marker of young cellular age) [2, 4]: decreasing
- levels of histone protein H1 (marker of young cellular age) [2, 4]: decreasing
- levels of γH2AX (DNA damage marker, marker of old cellular age) [2, 4]: increasing
- expression of the six markers tested [2, 5]: modulated

Compound: O=c1ncccn1[C@@H]1O[C@H](CO)[C@@H](O)[C@H]1O [Zebularine, 1-(β-D-Ribofuranosyl)-2(1H)-pyrimidinone]
- global levels of 5-mC DNA methylation [3]: decrease
- toxicity / effect on viability after prolonged culture (cell number) [1]: Much less toxicity
- shape of youthful marker expression over the three doses (C1-C3) ([2]; 3-day treatment): inverted U shaped curve
- expression of the six markers tested [2, 5]: modulated

Compound: O=C1Cc2c([nH]c3ccc(Br)cc23)-c2ccccc2N1 [kenpaullone]
- survival of motor neurons after trophic factor withdrawal (motor neurons (MNs)): impressive ability to prolong the healthy survival of MNs
